{
  "source": "patent US9539278B2",
  "about": "“Preparation for use of aspartate and vitamin B12 or biotin for regulating ketone bodies” (N.V. Nutricia, priority 2004, dated 2017)",
  "origin": "cited, not measured here",
  "test_system": "blood ketone body concentrations",
  "conditions": "rats, after consumption of high doses of alanine",
  "data": [
    {"smiles": "C[C@H](N)C(=O)O", "note": "[alanine]", "values": [
      {"measurement": "blood levels of ketone bodies", "value": "decreased"}
    ]}
  ]
}
